Measurements published in article PMC5326599 (Antiviral research, 2017).
Where “and” joins values, the source holds several entries; their conditions need not be identical. Equal values may be shown once. Read-outs that look alike come from different tables or passages of the source. Marks after values point to notes of the source that are not given here.

Key:
M2-S31N channel = M2-S31N channel (Influenza A virus, UniProt P0DOF5, S31N); assay type: biochemical
[1] = test system: A/WSN/33 (M2-N31S) (H1N1) virus; assay type: cell-based, influenza A virus; details: read-out: EC50, A/WSN/33 (M2-N31S) (H1N1)
[2] = test system: A/WSN/33 (M2-N31S + V27A) (H1N1) virus; assay type: cell-based, influenza A virus
[3] = test system: A/Solomon Islands/3/2006 (H1N1) virus; assay: microbe, parasite or virus in culture; assay type: cell-based; details: read-out: EC50, A/Solomon Islands/3/2006 (H1N1)
[4] = test system: A/Udorn/72 (H3N2) virus (M2-WT); assay: microbe, parasite or virus in culture; assay type: cell-based, influenza A virus
[5] = test system: influenza A/WSN/33 (M2-N31S + V27A) (H1N1) virus; parameters: species or system BALB/c mice; details: mouse, in vivo
[6] = biological target: A/Udorn/72 (M2-V27A) proton channel (Influenza A virus, UniProt P0DOF5, V27A); assay type: biochemical

Structure (SMILES) | channel inhibition at 100 μM, M2-S31N (M2-S31N channel) | EC50 [1] | EC50 ([2]; read-out: Antiviral Efficacy EC50, A/WSN/33 (M2-N31S + V27A) (H1N1) M2-V27A) | EC50 [3] | EC50 ([4]; read-out: antiviral EC50 at passage 1) | EC50 ([4]; read-out: antiviral EC50 at passage 2) | MDD ± SD (mean day of death) [5] | Mean Lung Parameters ± SD (Day 6): Virus Titer [5] | Mean Lung Parameters ± SD (Day 6): Weight [5] | Survivors/Total [5] | protection / effectiveness (in words) [5] | channel conductance current at the second activation event, % of the maximum current [6] | inhibition of plaque formation [2] | Mean Lung Parameters ± SD (Day 6): Hemorrhage Score [5] | protection from death [5] | EC50 ([3]; Influenza A virus, H1N1, MDCK) | EC50 ([4]; Influenza A virus, H3N2, read-out: antiviral EC50 at passage 1)
NC1CCC2(CC1)C1CC3CC(C1)CC2C3 (centres unmarked) [Compound 3, spiroadamantane amine] | […] | […] | […] | […] | […] | […] | […] | […] | […] | […] | highly protective | […] |  |  |  |  | 
CCC(CC)O[C@@H]1C=C(C(=O)O)C[C@H](N)[C@H]1NC(C)=O [Oseltamivir carboxylate (4), Oseltamivir carboxylate, reference compound] |  |  |  |  |  |  |  |  |  |  |  |  | complete inhibition |  |  |  | 
CCOC(=O)C1=C[C@@H](OC(CC)CC)[C@H](NC(C)=O)[C@@H](N)C1 [Oseltamivir (4), Oseltamivir] |  |  |  |  |  |  |  | 2.5 ± 0.2 Log10 CCID50/g | 178 ± 28 mg | 10/10^*** |  |  |  | 0.0 ± 0.0 | 100% |  | 
NC12CC3CC(CC(C3)C1)C2 [Amantadine (1), amantadine] |  | […] |  |  |  |  | […] | […] | […] | […] | minimum effectiveness |  |  |  |  | […] | […]
